We go through 19 compounds from patent publication US11542259B2, “Compounds for the treatment of kinase-dependent disorders” (Exelixis, Inc., priority 2018, dated 2023).

One test concerns the target AXL (Homo sapiens (Human), UniProt P30530). As to the kind of experiment: AXL autophosphorylation ELISA in A-172 cells. In kind it is cell-based. Conditions: cellular, Gas6 stimulated. The procedure, abridged:
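Serum-starved (24 h) A-172 glioblastoma cells pretreated 1 h with compounds (8-point curve, 0.3% DMSO), then stimulated 15 min with 1 μg/mL Gas6. Lysate phospho-AXL measured by sandwich ELISA against a phospho-AXL standard; IC50 from 4-parameter logistic fit between DMSO and reference-inhibitor controls.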
(In an ELISA, binding on a coated surface is turned into a signal by an enzyme label.)

The target in another test is Mer (Homo sapiens (Human), UniProt Q12866). As to the kind of experiment: Mer autophosphorylation ELISA in transient transfected 293A cells. Type of test: cell-based. The note with it: cellular, MERTK transfected 293A cells. The procedure, abridged: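 293A cells transiently transfected with human MERTK DNA, then treated 1 h with 8-point compound dilutions in serum-free medium (0.3% DMSO). Phospho-Mer in lysates quantified by sandwich ELISA against phospho-Mer standard; normalised to DMSO (100%) and reference inhibitor (0%), IC50 from 4-parameter logistic fit.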

Test [1] addresses Human Axl (residues H473-A894 with Q764R) (Homo sapiens (Human), UniProt P30530, Q764R). The test is described as follows: Human AXL kinase assay (33P radiometric, KinaseProfiler). In kind it is biochemical. The note with it: 10 μM ATP.

Sequence of Mer (Q12866 21-999): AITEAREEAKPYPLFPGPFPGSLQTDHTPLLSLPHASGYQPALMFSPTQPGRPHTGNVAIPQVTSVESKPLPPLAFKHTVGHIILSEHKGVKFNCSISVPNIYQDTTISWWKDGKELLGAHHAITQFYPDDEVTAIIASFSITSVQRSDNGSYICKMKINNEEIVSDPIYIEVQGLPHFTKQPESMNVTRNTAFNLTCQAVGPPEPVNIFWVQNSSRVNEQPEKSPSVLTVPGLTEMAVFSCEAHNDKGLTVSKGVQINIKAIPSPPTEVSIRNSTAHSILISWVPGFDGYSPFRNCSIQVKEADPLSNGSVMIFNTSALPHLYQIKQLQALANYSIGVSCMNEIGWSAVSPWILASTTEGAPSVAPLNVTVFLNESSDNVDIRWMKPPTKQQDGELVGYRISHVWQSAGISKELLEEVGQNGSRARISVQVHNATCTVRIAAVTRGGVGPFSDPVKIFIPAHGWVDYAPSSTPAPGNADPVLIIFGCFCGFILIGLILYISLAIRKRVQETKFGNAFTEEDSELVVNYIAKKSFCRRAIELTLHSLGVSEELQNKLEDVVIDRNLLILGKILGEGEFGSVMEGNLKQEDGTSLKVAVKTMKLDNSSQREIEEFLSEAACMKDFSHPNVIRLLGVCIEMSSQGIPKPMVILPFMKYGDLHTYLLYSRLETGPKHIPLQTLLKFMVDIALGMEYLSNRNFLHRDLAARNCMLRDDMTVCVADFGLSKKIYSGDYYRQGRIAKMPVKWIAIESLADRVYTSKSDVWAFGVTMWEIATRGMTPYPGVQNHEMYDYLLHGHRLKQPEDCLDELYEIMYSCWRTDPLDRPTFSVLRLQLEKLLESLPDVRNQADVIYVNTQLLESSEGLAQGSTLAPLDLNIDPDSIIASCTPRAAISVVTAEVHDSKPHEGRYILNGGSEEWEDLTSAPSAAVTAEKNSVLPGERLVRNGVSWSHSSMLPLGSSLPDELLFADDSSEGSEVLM
Sequence of AXL (P30530 26-894): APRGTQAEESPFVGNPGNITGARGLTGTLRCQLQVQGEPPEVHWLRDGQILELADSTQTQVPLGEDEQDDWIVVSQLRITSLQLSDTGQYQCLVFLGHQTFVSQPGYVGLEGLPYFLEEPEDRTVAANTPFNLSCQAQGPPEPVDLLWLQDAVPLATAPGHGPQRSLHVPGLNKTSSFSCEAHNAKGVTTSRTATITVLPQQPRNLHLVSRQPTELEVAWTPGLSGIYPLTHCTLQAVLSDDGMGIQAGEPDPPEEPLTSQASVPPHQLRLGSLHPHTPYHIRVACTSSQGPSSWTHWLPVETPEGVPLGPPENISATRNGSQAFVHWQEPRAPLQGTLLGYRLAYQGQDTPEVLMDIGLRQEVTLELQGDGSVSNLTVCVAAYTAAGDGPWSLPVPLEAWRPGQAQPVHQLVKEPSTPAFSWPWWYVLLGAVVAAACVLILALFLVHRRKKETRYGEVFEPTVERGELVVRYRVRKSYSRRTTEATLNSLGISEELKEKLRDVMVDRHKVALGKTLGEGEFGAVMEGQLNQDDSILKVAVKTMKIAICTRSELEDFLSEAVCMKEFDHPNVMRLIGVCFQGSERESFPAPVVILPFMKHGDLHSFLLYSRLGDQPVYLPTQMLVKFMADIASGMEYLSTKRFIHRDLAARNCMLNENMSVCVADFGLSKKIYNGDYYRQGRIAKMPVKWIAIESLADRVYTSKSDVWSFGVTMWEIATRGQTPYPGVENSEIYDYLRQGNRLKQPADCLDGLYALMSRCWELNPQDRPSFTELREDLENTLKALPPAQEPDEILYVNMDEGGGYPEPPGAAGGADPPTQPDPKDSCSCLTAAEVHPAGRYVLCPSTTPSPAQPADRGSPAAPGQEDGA
Sequence of Human Axl (residues H473-A894 with Q764R) (P30530 473-894 Q764R): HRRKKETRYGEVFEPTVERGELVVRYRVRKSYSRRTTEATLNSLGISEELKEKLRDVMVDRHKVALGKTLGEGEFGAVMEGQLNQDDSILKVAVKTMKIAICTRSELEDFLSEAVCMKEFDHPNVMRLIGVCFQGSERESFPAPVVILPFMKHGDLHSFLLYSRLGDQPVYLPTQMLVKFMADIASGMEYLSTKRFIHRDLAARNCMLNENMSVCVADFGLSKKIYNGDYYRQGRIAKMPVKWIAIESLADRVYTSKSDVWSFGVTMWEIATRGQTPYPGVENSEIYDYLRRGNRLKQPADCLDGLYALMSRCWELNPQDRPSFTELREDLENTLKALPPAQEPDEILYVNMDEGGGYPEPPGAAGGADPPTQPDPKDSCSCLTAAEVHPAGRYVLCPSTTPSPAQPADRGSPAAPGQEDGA

A word on the IC50: it is the concentration that inhibits the measured activity by half. Low readings indicate inhibition by little substance, high ones a need for much substance. Turning to `COc1cc2nccc(Oc3ccc(NC(=O)C4(C(=O)Nc5ccc(F)cc5)CC4)cc3)c2cc1C(N)=O` [Compound 7, 1-N-[4-(6-carbamoyl-7-methoxyquinolin-4-yl)oxyphenyl]-1-N′-(4-fluorophenyl)cyclopropane-1,1-dicarboxamide], the IC50 at AXL and against Mer was at most 10 nM each time.

As for `CCNC(=O)c1cc2c(Oc3ccc(NC(=O)C4(C(=O)Nc5ccc(F)cc5)CC4)cc3)ccnc2cc1OC` [Compound 9, 1-N-[4-[6-(ethylcarbamoyl)-7-methoxyquinolin-4-yl]oxyphenyl]-1-N′-(4-fluorophenyl)cyclopropane-1,1-dicarboxamide], the IC50 against AXL and against Mer was at most 10 nM in each case.

`CNC(=O)c1cc2c(Oc3ccc(NC(=O)C4(C(=O)Nc5ccc(F)cc5)CC4)cc3)ccnc2cc1OC` [Compound 8, 1-N′-(4-fluorophenyl)-1-N-[4-[7-methoxy-6-(methylcarbamoyl)quinolin-4-yl]oxyphenyl]cyclopropane-1,1-dicarboxamide]: the half-inhibitory concentration (IC50) on AXL and on Mer was at most 10 nM in each case.

Turning to `CNC(=O)c1ccc2nccc(Oc3ccc(NC(=O)C4(C(=O)Nc5ccc(F)cc5)CC4)cc3)c2c1` [Compound 59, 1-N′-(4-fluorophenyl)-1-N-[4-[6-(methylcarbamoyl)quinolin-4-yl]oxyphenyl]cyclopropane-1,1-dicarboxamide], the values for the half-maximal inhibitory concentration (IC50) (in test [1]; on AXL) were 10 to 100 nM and 100 to 300 nM, respectively.

On to `COc1cc2c(Oc3ccc(NC(=O)C4(C(=O)Nc5ccc(F)cc5)CC4)cc3)ccnc2cc1C(N)=O` [Compound 152, 1-N-[4-(7-carbamoyl-6-methoxyquinolin-4-yl)oxyphenyl]-1-N′-(4-fluorophenyl)cyclopropane-1,1-dicarboxamide], for which the IC50 (in test [1]; against AXL) was 10 to 100 nM each time.

As to `COc1cc2nccc(Oc3ccc(NC(=O)C4(C(=O)Nc5ccc(F)cc5)CC4)cc3)c2cc1C(=O)N1CC(O)C1` [Compound 16, 1-N′-(4-fluorophenyl)-1-N-[4-[6-(3-hydroxyazetidine-1-carbonyl)-7-methoxyquinolin-4-yl]oxyphenyl]cyclopropane-1,1-dicarboxamide], the IC50 (in test [1]; at AXL) was 10 to 100 nM in each case.

On to `COC(=O)c1cc2c(Oc3ccc(NC(=O)C4(C(=O)Nc5ccc(F)cc5)CC4)cc3)ccnc2cc1OC` [Compound 5, methyl 4-[4-[[1-[(4-fluorophenyl)carbamoyl]-cyclopropanecarbonyl]amino]-phenoxy]-7-methoxyquinoline-6-carboxylate], for which the IC50 (in test [1]; against AXL) was 10 to 100 nM in each case.

Turning to `COC(=O)c1cc2c(Oc3ccc(NC(=O)C4(C(=O)Nc5ccc(F)cc5)CC4)cc3F)ccnc2cc1OC` [Compound 129, methyl 4-[2-fluoro-4-[[1-[(4-fluorophenyl)carbamoyl]cyclopropanecarbonyl]amino]phenoxy]-7-methoxyquinoline-6-carboxylate], the 50% inhibitory concentration (IC50) (in test [1]; against AXL) was at most 10 nM each time.

For `COc1cc2nccc(Oc3ccc(NC(=O)C4(C(=O)Nc5ccc(F)cc5)CC4)cc3)c2cc1C1CC1` [Compound 187, 1-N-[4-(6-cyclopropyl-7-methoxyquinolin-4-yl)oxyphenyl]-1-N′-(4-fluorophenyl)cyclopropane-1,1-dicarboxamide], the values for the IC50 (in test [1]; against AXL) were at most 10 nM and 10 to 100 nM, respectively.

On to `COc1cc2nccc(Oc3ccc(NC(=O)C4(C(=O)Nc5ccc(F)cc5)CC4)cc3)c2cc1C1(O)CN(C(=O)OC(C)(C)C)C1` [Compound 195, tert-butyl 3-[4-[4-[[1-[(4-fluorophenyl)carbamoyl]cyclopropanecarbonyl]amino]phenoxy]-7-methoxyquinolin-6-yl]-3-hydroxyazetidine-1-carboxylate], for which the IC50 in test [1] was in the range of 10 to 100 nM; at AXL it was 100 to 300 nM.

As to `COc1cc2nccc(Oc3ccc(NC(=O)C4(C(=O)Nc5ccc(F)cc5)CC4)cc3)c2cc1-c1cnoc1` [Compound 183, 1-N′-(4-fluorophenyl)-1-N-[4-[7-methoxy-6-(1,2-oxazol-4-yl)quinolin-4-yl]oxyphenyl]cyclopropane-1,1-dicarboxamide], the concentration for half-maximal inhibition (IC50) (in test [1]; at AXL) was 10 to 100 nM throughout.

With `COc1cc2nccc(Oc3ccc(NC(=O)C4(C(=O)Nc5ccc(F)cc5)CC4)cc3)c2cc1C(=O)NC1COC1` [Compound 13, 1-N′-(4-fluorophenyl)-1-N-[4-[7-methoxy-6-(oxetan-3-ylcarbamoyl)quinolin-4-yl]oxyphenyl]cyclopropane-1,1-dicarboxamide], the IC50 (in test [1]; at AXL) was 10 to 100 nM in each case.

`CONC(=O)c1cc2c(Oc3ccc(NC(=O)C4(C(=O)Nc5ccc(F)cc5)CC4)cc3)ccnc2cc1OC` [Compound 17, 1-N′-(4-fluorophenyl)-1-N-[4-[7-methoxy-6-(methoxycarbamoyl)quinolin-4-yl]oxyphenyl]cyclopropane-1,1-dicarboxamide]: the half-maximal inhibitory concentration (IC50) on AXL and at Mer was 10 to 100 nM in each case.

For the compound `COc1cc2nccc(Oc3ccc(NC(=O)C4(C(=O)Nc5ccc(F)cc5)CC4)cc3)c2cc1C#N` [Compound 37, 1-N-[4-(6-cyano-7-methoxyquinolin-4-yl)oxyphenyl]-1-N′-(4-fluorophenyl)cyclopropane-1,1-dicarboxamide], the IC50 (in test [1]; against AXL) was 10 to 100 nM in each case.

As for `COc1cc2nccc(Oc3ccc(NC(=O)C4(C(=O)Nc5ccc(F)cc5)CC4)cc3)c2cc1N1CC(O)C1` [Compound 199, 1-N′-(4-fluorophenyl)-1-N-[4-[6-(3-hydroxyazetidin-1-yl)-7-methoxyquinolin-4-yl]oxyphenyl]cyclopropane-1,1-dicarboxamide], the half-inhibitory concentration (IC50) (in test [1]; at AXL) was at most 10 nM in each case.

With `COc1cc2nccc(Oc3ccc(NC(=O)C4(C(=O)Nc5ccc(F)cc5)CC4)cc3)c2cc1-c1ccccn1` [Compound 176, 1-N′-(4-fluorophenyl)-1-N-[4-(7-methoxy-6-pyridin-2-ylquinolin-4-yl)oxyphenyl]cyclopropane-1,1-dicarboxamide], the IC50 in test [1] was at most 10 nM; against AXL it was 10 to 100 nM.

For `COc1cc2nccc(Oc3ccc(NC(=O)C4(C(=O)Nc5ccc(F)cc5)CC4)cc3)c2cc1-c1cn[nH]c1` [Compound 186, 1-N′-(4-fluorophenyl)-1-N-[4-[7-methoxy-6-(1H-pyrazol-4-yl)quinolin-4-yl]oxyphenyl]cyclopropane-1,1-dicarboxamide], the IC50 in test [1] was 10 to 100 nM; on AXL, at most 10 nM.

In the case of `COc1cc2nccc(Oc3ccc(NC(=O)C4(C(=O)Nc5ccc(F)cc5)CC4)cc3)c2cc1S(C)(=O)=O` [Compound 210, 1-N′-(4-Fluorophenyl)-1-N-[4-(7-methoxy-6-methylsulfonylquinolin-4-yl)oxyphenyl]cyclopropane-1,1-dicarboxamide], the IC50 in test [1] was at most 10 nM; on AXL it was 10 to 100 nM.

Turning to `CNC(=O)c1cc2nccc(Oc3ccc(NC(=O)C4(C(=O)Nc5ccc(F)cc5)CC4)cc3)c2cc1C` [Compound 143, 1-N′-(4-fluorophenyl)-1-N-[4-[6-methyl-7-(methylcarbamoyl)quinolin-4-yl]oxyphenyl]cyclopropane-1,1-dicarboxamide], the concentration for half-maximal inhibition (IC50) (in test [1]; on AXL) was 10 to 100 nM in each case.
